Measurements from ChEMBL document CHEMBL1126385, “-alkoxyphenol leukotriene B4 receptor antagonists” (Bioorg Med Chem Lett, 1992).

System: Cavia porcellus
Test: Effective dose for inhibition of gas trapping in vivo in a guinea pig model of LTB4-induced airway obstruction
Format: functional

CCOc1cc(CC)c(OCCCCCC(C)(C)c2nn[n-]n2)cc1O.[Na+]
ED50: 0.3 mg/kg
